We go through 29 molecules from the Deep4Chem optical property database.

This data set can be described thus: photoluminescence quantum yield (fraction); solvent given as SMILES.
Where [1] appears, read: in c1cc(-c2cccc(-n3c4ccccc4c4ccccc43)c2)cc(-n2c3ccccc3c3ccccc32)c1.
Where [2] appears, read: in O=P(c1ccccc1)(c1ccccc1)c1ccccc1Oc1ccccc1P(=O)(c1ccccc1)c1ccccc1.

Consider `Cc1cc(-n2c3ccccc3c3ccccc32)c(-n2c3ccccc3c3ccccc32)cc1C#N`, for which the photoluminescence quantum yield reads like this: under setting [1], 0.89; (in c1ccc2c(c1)c1ccccc1n2-c1ccc2sc3ccc(-n4c5ccccc5c5ccccc54)cc3c2c1) 0.841; (in c1ccc2c(c1)c1ccccc1n2-c1ccc2sc3ccc(-n4c5ccccc5c5cccnc54)cc3c2c1) 0.982; (in c1ccc2c(c1)c1cccnc1n2-c1ccc2sc3ccc(-n4c5ccccc5c5cccnc54)cc3c2c1) 0.879.
Regarding `c1csc(-c2cnc(-c3cccs3)c3nonc23)c1`, the photoluminescence quantum yield by setting is: (in C1CCCCC1) 0.54; (in CC(C)=O) 0.39; (in CCCCCC) 0.54; (in CCCO) 0.22; (in CCO) 0.19; (in CCOCC) 0.52. Also, the photoluminescence quantum yield runs as follows: (in CO) 0.15; (in Cc1ccccc1) 0.35; (in ClC(Cl)(Cl)Cl) 0.43; (in ClC(Cl)Cl) 0.35; (in O=[N+]([O-])c1ccccc1) 0.2; (in OCC(O)CO) 0.03. Moreover, the photoluminescence quantum yield by setting is: (in OCc1ccccc1) 0.12; (in c1ccc2ncccc2c1) 0.25; (in c1ccccc1) 0.4; (in c1ccncc1) 0.23.
`Oc1c(-c2cccs2)cccc1-c1nc2ccccc2s1`: the photoluminescence quantum yield by setting is: (in CCO) 0.0075; (in ClCCl) 0.017; (in O) 0.01.
Molecule `CC1(C)c2ccccc2N(c2ccc3c(c2)S(=O)(=O)c2cc(N4c5ccccc5C(C)(C)c5ccccc54)ccc2C3(C)C)c2ccccc21` showed a photoluminescence quantum yield under setting [2] of 0.62.
For the molecule `c1ccc(-c2nnc(-c3cc(-c4nnc(-c5ccccc5)o4)c(-n4c5ccccc5c5ccccc54)cc3-n3c4ccccc4c4ccccc43)o2)cc1`, the photoluminescence quantum yield is 0.101 (in Cc1ccccc1) and 0.581 under setting [2].
For the molecule `CCN(CC)c1ccc2c(c1)oc(=O)c1c(-c3ccccc3C(=O)O)c3ccc(=[N+](CC)CC)cc-3oc12`, the photoluminescence quantum yield (in CCO) came to 0.21, the photoluminescence quantum yield (in ClC(Cl)Cl) was 0.51 and the photoluminescence quantum yield (in O) was found to be 0.01.
Take `COC(=O)C1=NNC(C(=O)OC)=C2c3ccccc3C(=O)c3ccccc3C12` (stereo not given): the photoluminescence quantum yield (in CC#N) was determined as 0.32.
Regarding `F[B-]1(F)n2c(c3cccc4cccc2c43)=Nc2ccc3ccccc3[n+]21`, the photoluminescence quantum yield reads like this: (in C1CCOC1) 0.98; (in CC#N) 0.99; (in CCCCCC) 0.63; (in Cc1ccccc1) 0.99; (in ClCCl) 0.99.
`CCC1(CC)c2cc(N(C)C)ccc2-c2ccc(C(F)(F)F)cc21`: the photoluminescence quantum yield is, setting by setting: (in C1CCCCC1) 0.67; (in CC#N) 0.04; (in CCO) 0.58; (in CCOCC) 0.63; (in CS(C)=O) 0.53; (in ClCCl) 0.44. Where the note is “in c1ccccc1”, the photoluminescence quantum yield is 0.59.
The molecule `N#CC1=C(N)n2c(=O)c3ccccc3c(=O)n2C1c1ccccc1` (stereo not given) returned a photoluminescence quantum yield (in CS(C)=O) of 0.057.
The molecule `CC(C)(C)c1ccc(Oc2cc3c4c(cc(Oc5ccc(C(C)(C)C)cc5)c5c6c(Oc7ccc(C(C)(C)C)cc7)cc7c8c(cc(Oc9ccc(C(C)(C)C)cc9)c(c2c45)c86)C(=O)N(c2ccccc2)C7=O)C(=O)N(c2ccccc2)C3=O)cc1` gave a photoluminescence quantum yield (in ClC(Cl)Cl) of 0.86.
Take `COc1ccc(/C=C/C(=O)c2ccccc2O)cc1OC`: the photoluminescence quantum yield (in C1CCOC1) came out at 0; the photoluminescence quantum yield (in C1COCCO1) was 0.072; the photoluminescence quantum yield (in CC#N) worked out at 0.28; the photoluminescence quantum yield (in CCCO) was determined as 0.37; the photoluminescence quantum yield (in CCO) stood at 0.15; the photoluminescence quantum yield (in CN(C)C=O) worked out at 0.36. The photoluminescence quantum yield was determined as 0.24 (in CO), 0.47 (in CS(C)=O), 0.053 (in ClC(Cl)Cl) and 0.037 (in ClCCl).
`COC(=O)c1c(NC(C)(C)C)oc(-c2ccc(-c3ccccc3)cc2)c1C(=O)OC`: the photoluminescence quantum yield (in CC#N) is 0.14.
Molecule `CCCCCCC(CCCCCC)N1C(=O)c2cccc3c(-c4ccc(N(C)C)cc4)ccc(c23)C1=O` showed a photoluminescence quantum yield (in CCCCCC) of 0.7; a photoluminescence quantum yield (in CCCCCCCCCCCCCC) of 0.73; a photoluminescence quantum yield (in CCCCCCCCCCCO) of 0.14; a photoluminescence quantum yield (in CCCCO) of 0.013; a photoluminescence quantum yield (in CN(C)C=O) of 0.0037; a photoluminescence quantum yield (in Cc1ccccc1) of 0.65. For the setting “in ClC(Cl)Cl”, the photoluminescence quantum yield worked out at 0.64.
On to `FC(F)(F)c1ccc(/C=C/c2nc(/C=C/c3ccc(N(c4ccccc4)c4ccccc4)cc3)cc(/C=C/c3ccc(N(c4ccccc4)c4ccccc4)cc3)n2)cc1`, for which the photoluminescence quantum yield (in ClCCl) came out at 1.
Turning to `CC[N+]1(CC)CN2C(=N1)C(C(=O)O)=Cc1ccc(C)cc12`, the photoluminescence quantum yield (in O) was 0.617.
`C(=C\c1ccc(N(c2ccccc2)c2ccccc2)cc1)/c1ccc(-c2ccc(/C=C/c3ccc(N(c4ccccc4)c4ccccc4)cc3)cc2)cc1`: the photoluminescence quantum yield (in ClCCl) turned out to be 0.86.
`CC(C)(C)c1ccc2c(c1)c1cc(C(C)(C)C)ccc1n2-c1cc(C(=O)c2ccccc2)cc(-n2c3ccc(C(C)(C)C)cc3c3cc(C(C)(C)C)ccc32)c1`: the photoluminescence quantum yield is, setting by setting: (in Cc1ccccc1) 0.073; under setting [1], 0.75.
Molecule `O=c1oc2ccccc2cc1/C=C/c1ccc([N+](=O)[O-])cc1` showed a photoluminescence quantum yield (in CC#N) of 0.04.
For `c1ccc(C2(c3ccccc3)c3ccc4ccc5ccccc5c4c3-c3c2ccc2ccc4ccccc4c32)cc1`, the photoluminescence quantum yield (in ClCCl) is 0.4.
Turning to `CC(C)C[Si](C#Cc1c2c(=O)c3ccccc3c2c(C#C[Si](CC(C)C)(CC(C)C)CC(C)C)c2c(=O)c3ccccc3c12)(CC(C)C)CC(C)C`, the photoluminescence quantum yield (in ClC(Cl)Cl) is 0.1.
Consider `C=CC1CN2CCC1CC2[C@@H](OCc1ccccc1)c1ccnc2ccc(O)cc12` (stereo not given in full), for which the photoluminescence quantum yield runs as follows: (in C1CCOC1) 0.12; (in CC#N) 0.016; (in CCCC#N) 0.021; (in Cc1ccccc1) 0.06; (in ClCCl) 0.035.
As to `CC(C)(C)c1ccc2ccc3c(C(C)(C)C)ccc4ccc1c2c43`, the photoluminescence quantum yield reads like this: (in CCCCCC) 0.43; (in CO) 0.54; (in ClCCl) 0.34.
`c1ccc(-c2c3ccccc3c(-c3ccccc3)c3ccccc23)cc1` gave a photoluminescence quantum yield (in C1CCCCC1) of 0.97.
`c1ccc2cc(-c3c4ccccc4c(-c4nccc5ccccc45)c4ccccc34)ccc2c1` returned a photoluminescence quantum yield (in ClCCl) of 0.57.
As to `CN(C)c1nc(N)c2nc(C#N)n(Cc3ccccc3)c2n1`, the photoluminescence quantum yield stood at 0.92 (in C1COCCO1), 0.55 (in CC#N), 0.8 (in CO) and 0.95 (in ClCCl).
Regarding `CCn1c2cc(-c3ccc(-c4cccs4)s3)ccc2c2ccc(-c3ccc(-c4cccs4)s3)cc21`, for the setting “in ClCCl”, the photoluminescence quantum yield is 0.482.
Regarding `COC(=O)c1cc(=O)n(C)c2cc(-c3ccc(OC)cc3)sc12`, the photoluminescence quantum yield worked out at 0.99 (in C1CCOC1); 0.77 (in CC#N); 0.99 (in CCO); 0.99 (in CN(C)C=O); 0.99 (in CO); 0.99 (in CS(C)=O). Further, the photoluminescence quantum yield was determined as 0.98 (in Cc1ccccc1), 0.95 (in ClC(Cl)Cl) and 0.9 (in ClCCl).
In the case of `C(#Cc1c(C#Cc2ccccc2)c(C#Cc2ccccc2)c(C#Cc2ccccc2)c(C#Cc2ccccc2)c1C#Cc1ccccc1)c1ccccc1`, the photoluminescence quantum yield (in ClCCl) amounted to 0.43.
